In US20250339405A1, “a-SYNUCLEIN AGGREGATE BINDING AGENT AND IMAGING METHOD” (National Institutes for quantum and Radiological Science …, priority 2019, published 2025):

Assays:
[1] = target: T1, A53T mutant human α-synuclein (Homo sapiens, UniProt P37840, A53T); assay: Inhibitory effect on α-synuclein aggregation (seeded, sarkosyl-insoluble fraction, CBB staining); assay type: biochemical; details: 37° C., 1 day
T1 construct: made in house; host or cells: E. coli
Description: First, A53T mutant human α-synuclein was expressed in and extracted from E. coli as a recombinant protein, and incubated in vitro to prepare α-synuclein aggregate seeds. To 0.02 μg of the α-synuclein aggregate seeds, C05-05 (in DMSO solution) was added at a final concentration of 20 μM, or 200 μM and stirred. An experiment in which only DMSO was added was conducted as a control experiment. These were suspended with 50 μL of A53T mutant human-synuclein monomer solution at a concentration of 1 mg/ml and then shaken at 37° C. for 1 day. Ten μL of the suspension was mixed with 90 μL of 1% sarkosyl and ultracentrifuged at 100 Krpm for 20 minutes, and a resulting precipitate was subjected to electrophoresis, followed by CBB staining of the gel. Images of the gels were obtained using an imager, and quantification of bands was carried out using analysis software (Image J).

[2] = target: T2, lesion composed of the phosphorylated α-synuclein (Mus musculus, UniProt O55042); assay: In vitro fluorescence microscope measurement, α-synuclein fibril-injected mouse brain sections; assay type: binding; details: 30 μM, 20% ethanol, 30 minutes, room temperature
T2 construct: from tissue; host or cells: brain of C57BL/6 mice inoculated in the striatum with recombinant murine α-synuclein fibrils (made in E. coli)
Description: First, murine α-synuclein was expressed in and extracted from E. coli as a recombinant protein, and incubated in vitro to form an insoluble α-synuclein aggregate.
Note that the α-synuclein aggregate was inoculated into the striatum of the mouse with the following manner. First, hair on the head of 9-week-old C57BL/6 male mouse anesthetized with 1.5% (v/v) isoflurane was removed, and the scalp was disinfected with isodine, followed by application of xylocaine and incision in the scalp to expose the skull. […]
The brain of the α-synuclein fibril-injected mouse was extracted, sectioned, and analyzed by fluorescent staining. […] After mounting the sections using a mounting medium (VECTASHIELD H-1000), images of α-synuclein aggregate-enriched areas on the sections were obtained using a fluorescence microscope (DM4000). […] Immunohistochemical staining with an anti-phosphorylated α-synuclein monoclonal antibody (pS129, abcam, ab59264) (1:1000) was carried out, and after mounting the sections using a mounting medium (VECTASHIELD H-1000), images of the same areas were obtained using the fluorescence microscope (DM4000).

[3] = target: T3, α-synuclein aggregate formed in the brain of the DLB patient (Homo sapiens, UniProt P37840); assay: In vitro fluorescence microscope measurement, DLB patient brain sections; assay type: binding; details: 30 μM compound, 50% ethanol, 30 minutes, room temperature, amygdala sections
T3 construct: Postfixed fresh frozen sections of the amygdala tissue of the DLB patient; from tissue; host or cells: post-mortem human DLB amygdala, frozen sections
From the text: Postmortem human brains were obtained from autopsies carried out with respect to a dementia with Lewy bodies (DLB) and Alzheimer's disease (AD) patients.
A frozen DLB tissue was sliced with a thickness of 20 μm in a cryostat (HM560, Carl Zeiss).
Postfixed fresh frozen sections of the amygdala tissue of the DLB patient and formalin fixed, paraffin embedded sections of a deparaffinized middle frontal gyrus tissue of the AD patient were used. Thirty μM of each of the above compounds and brain sections were incubated in a 50% ethanol solution for 30 minutes at room temperature. The sections were then washed twice, i.e., washed with a 50% ethanol solution for 5 minutes and with ultrapure water for 3 minutes. After mounting the sections using a mounting medium (VECTASHIELD H-1000, Vector Laboratories), images of lesion-enriched areas on the sections were obtained using a fluorescence microscope (DM4000, Leica). Analysis software (Image J) was used to quantify the fluorescence of lesion-enriched and lesion-free (background) areas.

α-synuclein lesions [4] = target: T4, α-synuclein lesions (Mus musculus, UniProt O55042); assay: Ex vivo imaging of α-synuclein fibril-injected model mouse brain; assay type: in vivo
T4 construct: from tissue; host or cells: brain of C57BL/6 mice inoculated in the striatum with recombinant murine α-synuclein fibrils (made in E. coli)
Description: A model mouse at 6 weeks after the injection of the α-synuclein fiber solution was anesthetized with 1.5% (v/v) isoflurane in a manner similar to that described in “(Preparation of α-synuclein fibril-injected mouse model)” above, and C05-05 (1.66 mg/kg) or BF-227 (1.66 mg/kg) was intraperitoneally administered.
The brains were collected and frozen 90 minutes after the administration of C05-05 (or 120 minutes after the administration of BF-227), and frozen sections with the thickness of 20 μm were prepared in a cryostat (HM560). After mounting the sections using a mounting medium (VECTASHIELD H-1000), images of α-synuclein aggregate-enriched areas on the sections were obtained using a fluorescence microscope (DM4000).
Moreover, the same sections were immersed and fixed overnight in a phosphate buffer solution containing 4% paraformaldehyde. The brain after fixation was washed under running water and then treated with an autoclave for the antigen retrieval. Immunohistochemical staining with an anti-phosphorylated α-synuclein monoclonal antibody (pS129, abcam, ab59264) (1:1000) was carried out, and after mounting the sections using a mounting medium (VECTASHIELD H-1000), images of the same areas were obtained using the fluorescence microscope (DM4000). FIG. 7(a) contains images showing the case where C05-05 was administered, and FIG. 7(b) is images showing the case where BF-227 was administered.

α-synuclein lesions [5] = target: T4, α-synuclein lesions; assay: In vivo two-photon laser scanning fluorescence microscopy of α-synuclein fibril-injected model mouse
Description: Note that the α-synuclein aggregate was inoculated into the striatum of the mouse with the following manner. First, hair on the head of 9-week-old C57BL/6 male mouse anesthetized with 1.5% (v/v) isoflurane was removed, and the scalp was disinfected with isodine, followed by application of xylocaine and incision in the scalp to expose the skull. Then, a hole was drilled in the skull at a position of 0.05 mm posterior to the bregma and 2 mm lateral to the midline, and 3 μl of an α-synuclein fiber solution (murine α-synuclein fiber (4 mg/ml) in saline) was injected into a position […] ventral to the brain surface using a glass pipette, and then the scalp was returned and sutured.
A model mouse was anesthetized with 1.5% (v/v) isoflurane 6 weeks after the injection of the α-synuclein fiber solution, and a cranial window was provided according to the Seylaz-Tomita method (Tomita et al. J Cereb Blood Flow Metab 25, 858-67, 2005). The mouse was anesthetized with 1.5% (v/v) isoflurane 2 weeks after the generation of the cranial window, and 50 μl of a solution of DMSO/physiological saline water=1:1 containing 0.05% of C05-05 or PBB3 was administered via the tail vein. The mouse was fixed under a two-photon laser fluorescence microscope 90 minutes after administration of C05-05 or 30 minutes after administration of PBB3, and 100 μl of a saline solution containing 5 mM of Sulforhodamine 101 was administered intraperitoneally, followed by intravital two-photon fluorescence imaging at an excitation wavelength of 900 nm. The detection wavelengths for C05-05 and PBB3 were set at 500 nm to 550 nm, and detection wavelengths for Sulforhodamine 101 were set at 573 nm to 648 nm.

CNc1ccc(C#C/C=C/c2nc3ccc(OCC(O)CF)cc3s2)cn1 (stereo not shown) [C05-05, (E)-1-fluoro-3-(2-(4-(6-(methylamino)pyridin-3-yl)but-1-en-3-ynyl)benzo[d]thiazol-6-yloxy)propan-2-ol]
reduction of formation of insoluble α-synuclein aggregate compared with control experiment (DMSO) ([1]; final concentration 20 μM): approximately 20%
reduction of formation of insoluble α-synuclein aggregate compared with control experiment (DMSO) ([1]; final concentration 200 μM): approximately 60%
binding to phosphorylated α-synuclein lesion (co-staining with pS129 antibody) [2]: binds to the lesion composed of the phosphorylated α-synuclein
binding to the α-synuclein aggregate formed in the brain of the DLB patient, reactivity relative to PBB3 [3]: reactivity equal to or greater than that of PBB3
entry into the brain (ex vivo imaging) (α-synuclein lesions [4]; 1.66 mg/kg, model mouse): entered the brain
detection of α-synuclein lesions by ex vivo imaging (α-synuclein lesions [4]; 1.66 mg/kg, brains collected 90 minutes after C05-05 or 120 minutes after BF-227): bound to individual α-synuclein lesions
contrast in detecting lesions relative to BF-227 (α-synuclein lesions [4]; ex vivo imaging): higher contrast than BF-227
contrast in detecting lesions relative to PBB3 (α-synuclein lesions [5]; intravital two-photon imaging): higher contrast than PBB3
detection of α-synuclein lesions by intravital two-photon fluorescence imaging (α-synuclein lesions [5]; tail vein, 50 μl of 0.05% solution, 90 minutes after C05-05 or 30 minutes after PBB3): bound to individual α-synuclein lesions
entry into the brain after intravenous injection (α-synuclein lesions [5]; tail vein, model mouse): entered the brain of the living body
